Results: ChEMBL document CHEMBL1201862, “PubChem BioAssay data set” (2004)
The source made the active and inactive calls.

How the values were obtained:
SUMO-activating enzyme = SUMO-activating enzyme (Homo sapiens, UniProt Q9UBT2); assay: blockers of UBC9-mediated SUMO conjugation – biochemical, AlphaScreen, SUMOylation inhibitor project, confirmation (AID 2018); type: functional
Prothrombin = Prothrombin (Homo sapiens, UniProt P00734); assay: Thrombin 1536 HTS Dose Response Confirmation. [Related pubchem assays: 1046 (Thrombin 1536 HTS; hits were confirmed in this assay)]; type: functional
Leucine aminopeptidase = biological target: T1, Leucine aminopeptidase (Plasmodium falciparum 3D7, UniProt Q8IL11); assay: P. falciparum M17LAP inhibitors, primary screen, biochemical, fluorogenic H-Leu-NHMec substrate, 1536-well (AID 1619); type: functional
T1 sequence (Q8IL11 whole entry): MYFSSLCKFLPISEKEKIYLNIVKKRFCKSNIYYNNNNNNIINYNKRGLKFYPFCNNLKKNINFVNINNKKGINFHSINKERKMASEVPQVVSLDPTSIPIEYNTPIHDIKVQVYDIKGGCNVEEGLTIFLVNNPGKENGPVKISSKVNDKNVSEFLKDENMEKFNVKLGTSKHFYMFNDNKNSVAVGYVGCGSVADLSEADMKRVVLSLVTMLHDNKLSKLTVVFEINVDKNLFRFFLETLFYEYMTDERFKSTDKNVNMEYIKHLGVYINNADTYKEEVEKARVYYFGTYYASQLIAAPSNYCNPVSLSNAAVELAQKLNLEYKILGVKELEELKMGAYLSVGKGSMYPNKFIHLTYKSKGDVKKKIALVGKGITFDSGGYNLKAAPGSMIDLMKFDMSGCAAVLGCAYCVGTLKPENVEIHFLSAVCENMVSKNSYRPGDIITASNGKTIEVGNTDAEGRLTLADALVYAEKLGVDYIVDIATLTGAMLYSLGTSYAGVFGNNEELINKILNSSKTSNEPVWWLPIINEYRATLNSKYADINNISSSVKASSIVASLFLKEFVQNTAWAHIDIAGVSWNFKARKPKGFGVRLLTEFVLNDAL

[1] = biological target: DNA dC->dU-editing enzyme APOBEC-3G (Homo sapiens, UniProt Q9HC16); assay: Dose Response confirmation of small molecule APOBEC3G DNA Deaminase Inhibitors via a fluorescence-based single-stranded DNA deaminase assay. [Related pubchem assays (depositor defined):AID493012, AID493028]; type: functional
Sequence of DNA dC->dU-editing enzyme APOBEC-3G (Q9HC16 whole entry): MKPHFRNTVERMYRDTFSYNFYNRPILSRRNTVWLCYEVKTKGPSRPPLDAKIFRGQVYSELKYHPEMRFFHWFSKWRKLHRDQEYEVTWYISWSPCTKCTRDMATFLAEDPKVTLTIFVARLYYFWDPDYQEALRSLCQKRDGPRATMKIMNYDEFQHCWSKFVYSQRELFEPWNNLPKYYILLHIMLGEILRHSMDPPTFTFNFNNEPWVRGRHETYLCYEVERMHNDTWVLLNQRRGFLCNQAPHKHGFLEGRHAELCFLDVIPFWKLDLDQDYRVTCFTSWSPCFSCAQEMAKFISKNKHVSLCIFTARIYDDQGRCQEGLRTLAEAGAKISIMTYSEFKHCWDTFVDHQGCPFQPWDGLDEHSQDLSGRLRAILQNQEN

[2] = Luminescence Cell-Based Dose Confirmation HTS to Identify Activators of 5'UTR Stem-Loop Driven Alpha-Synuclein mRNA Translation in H4 Neuroglioblastoma Cells. [Related pubchem assays: 1829 (Project Summary), 1814 (Primary HTS)]; type: functional
[3] = Luminescence Cell-Based Dose Response HTS to Identify Activators of Luciferase Translation or Activity in H4 […] Cells. [Related pubchem assays: 1829 (Project Summary), 1814 (Primary HTS)]; type: functional
H4 = assay: Luminescence Cell-Based Dose Response HTS to Identify Activators of 5'UTR Stem-Loop Driven Prion Protein mRNA Translation in H4 Neuroglioblastoma Cells. [Related pubchem assays: 1829 (Project Summary), 1814 (Primary HTS)]; type: functional; conditions: Homo sapiens
[4] = biological target: T2, Histone-lysine N-methyltransferase NSD2 (Homo sapiens, UniProt O96028); type: biochemical
T2 sequence (O96028 whole entry): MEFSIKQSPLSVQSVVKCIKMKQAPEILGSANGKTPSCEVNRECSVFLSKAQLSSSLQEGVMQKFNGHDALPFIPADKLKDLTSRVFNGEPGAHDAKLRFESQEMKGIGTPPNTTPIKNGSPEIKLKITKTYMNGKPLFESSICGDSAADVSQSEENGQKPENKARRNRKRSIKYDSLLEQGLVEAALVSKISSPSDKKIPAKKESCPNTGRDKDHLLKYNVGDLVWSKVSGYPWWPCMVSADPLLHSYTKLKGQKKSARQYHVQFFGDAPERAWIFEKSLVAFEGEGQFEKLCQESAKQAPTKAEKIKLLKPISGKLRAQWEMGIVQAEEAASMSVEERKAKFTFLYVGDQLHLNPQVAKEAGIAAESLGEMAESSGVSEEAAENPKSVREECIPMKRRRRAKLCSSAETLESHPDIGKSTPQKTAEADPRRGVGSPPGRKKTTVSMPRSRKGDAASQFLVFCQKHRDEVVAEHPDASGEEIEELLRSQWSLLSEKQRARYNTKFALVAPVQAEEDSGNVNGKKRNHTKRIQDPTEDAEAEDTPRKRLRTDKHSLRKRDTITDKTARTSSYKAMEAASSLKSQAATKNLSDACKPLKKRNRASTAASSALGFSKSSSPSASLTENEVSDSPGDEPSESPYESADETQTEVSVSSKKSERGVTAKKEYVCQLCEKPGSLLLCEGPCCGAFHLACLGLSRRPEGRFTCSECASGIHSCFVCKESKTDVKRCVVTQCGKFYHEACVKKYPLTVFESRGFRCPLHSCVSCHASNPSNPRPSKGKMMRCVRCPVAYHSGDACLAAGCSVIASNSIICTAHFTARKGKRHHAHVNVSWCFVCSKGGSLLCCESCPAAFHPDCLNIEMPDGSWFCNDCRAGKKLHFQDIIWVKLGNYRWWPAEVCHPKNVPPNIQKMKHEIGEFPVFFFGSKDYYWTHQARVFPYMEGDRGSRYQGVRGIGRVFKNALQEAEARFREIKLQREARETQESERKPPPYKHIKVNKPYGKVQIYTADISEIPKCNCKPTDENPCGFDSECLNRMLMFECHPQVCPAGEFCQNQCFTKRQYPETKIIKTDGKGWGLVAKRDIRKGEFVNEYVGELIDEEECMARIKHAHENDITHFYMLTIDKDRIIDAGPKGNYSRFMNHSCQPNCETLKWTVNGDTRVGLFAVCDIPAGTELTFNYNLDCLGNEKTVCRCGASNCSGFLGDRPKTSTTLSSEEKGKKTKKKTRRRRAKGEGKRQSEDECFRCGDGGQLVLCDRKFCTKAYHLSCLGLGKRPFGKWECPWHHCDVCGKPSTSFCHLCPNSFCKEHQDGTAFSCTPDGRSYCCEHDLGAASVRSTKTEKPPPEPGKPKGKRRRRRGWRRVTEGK

[5] = biological target: T3, Corticotropin-releasing factor receptor 2/Corticotropin-releasing factor-binding protein (Homo sapiens, UniProt P24387+Q13324); assay: Dose Response confirmation of uHTS hits for small molecule antagonists of the CRF-binding protein and CRF-R2 receptor complex.; type: functional; conditions: read-out: IC50_Mean
T3 sequence (Q13324 whole entry): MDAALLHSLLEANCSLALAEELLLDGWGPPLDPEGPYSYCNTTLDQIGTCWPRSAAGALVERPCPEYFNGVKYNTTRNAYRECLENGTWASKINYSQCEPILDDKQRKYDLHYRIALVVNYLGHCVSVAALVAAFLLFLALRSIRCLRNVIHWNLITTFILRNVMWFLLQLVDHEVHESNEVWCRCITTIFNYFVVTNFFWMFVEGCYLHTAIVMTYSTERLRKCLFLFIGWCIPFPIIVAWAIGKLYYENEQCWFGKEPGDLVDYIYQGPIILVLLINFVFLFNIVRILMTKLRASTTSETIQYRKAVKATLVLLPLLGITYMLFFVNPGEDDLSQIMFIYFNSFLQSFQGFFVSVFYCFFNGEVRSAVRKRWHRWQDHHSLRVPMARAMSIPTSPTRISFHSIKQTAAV
T3 sequence (P24387 whole entry): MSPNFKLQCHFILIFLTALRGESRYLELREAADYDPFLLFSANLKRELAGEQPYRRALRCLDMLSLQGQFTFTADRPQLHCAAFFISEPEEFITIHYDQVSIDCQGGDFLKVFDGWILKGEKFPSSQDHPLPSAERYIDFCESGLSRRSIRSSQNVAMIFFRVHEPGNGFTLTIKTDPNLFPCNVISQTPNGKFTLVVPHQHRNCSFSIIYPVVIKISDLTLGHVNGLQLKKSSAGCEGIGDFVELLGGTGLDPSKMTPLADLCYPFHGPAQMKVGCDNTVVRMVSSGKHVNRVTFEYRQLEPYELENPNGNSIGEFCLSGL

[6] = biological target: T3, Corticotropin-releasing factor receptor 2/Corticotropin-releasing factor-binding protein; assay: activators of CRF receptor 2 with binding protein – uHTS hits, confirmation (AID 602473); type: functional; conditions: read-out: EC50_Mean
[7] = HEK-293T cell viability reduction – luminescence, B-cell screen hits, cytotoxicity control for BCR NF-kB inhibitor project, dose response (AID 489021); type: functional, cell-based;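 also: HEK-293T cells carrying an NF-kB luciferase reporter; cells exposed to compound for about 14 hours before viability readout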
HEK293 = assay: EBV LMP1 TES2 canonical NF-kB signalling blockers – cell-based, HEK293, luciferase, cherry-pick, dose response (AID 588343); type: functional; conditions: Homo sapiens
[8] = Trypanosoma cruzi growth suppression in host cells – NIH3T3 host cells, beta-gal luminescence, confirmation (AID 2044); type: functional, cell-based;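 also: intracellular parasites grown in NIH/3T3 mouse fibroblasts as host cells; luminescent beta-galactosidase reporter signal from transgenic T. cruzi replicating inside host cells; inhibitors lower the luminescence signal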
[9] = NIH3T3 cell viability loss – ATP luminescence, mouse fibroblasts, counter-screen, dose response (AID 2010); type: functional, cell-based;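 also: cells exposed to compound for about 90 hours before reading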
[10] = biological target: Glucose-6-phosphate 1-dehydrogenase (Homo sapiens, UniProt P11413); assay: inhibition of Homo sapiens G6PD, dose series – biochemical, fluorescence, selectivity assay for P. falciparum G6PD inhibitor project, dose response (AID 504792); type: functional
Sequence of Glucose-6-phosphate 1-dehydrogenase (P11413 whole entry): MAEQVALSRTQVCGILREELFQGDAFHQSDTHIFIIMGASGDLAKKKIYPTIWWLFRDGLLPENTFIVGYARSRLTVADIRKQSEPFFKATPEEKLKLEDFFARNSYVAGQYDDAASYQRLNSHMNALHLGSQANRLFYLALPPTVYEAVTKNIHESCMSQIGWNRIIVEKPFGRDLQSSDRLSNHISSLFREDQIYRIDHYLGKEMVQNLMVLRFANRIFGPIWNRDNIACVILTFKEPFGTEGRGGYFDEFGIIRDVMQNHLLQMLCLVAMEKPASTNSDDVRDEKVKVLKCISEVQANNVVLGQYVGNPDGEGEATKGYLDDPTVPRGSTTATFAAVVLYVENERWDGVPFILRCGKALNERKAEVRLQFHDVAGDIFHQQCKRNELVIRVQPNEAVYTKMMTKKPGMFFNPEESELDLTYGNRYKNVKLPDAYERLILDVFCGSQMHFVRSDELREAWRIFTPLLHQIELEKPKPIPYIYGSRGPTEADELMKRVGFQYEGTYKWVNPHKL

[11] = reduction of Shn3 3'UTR-driven luciferase in osteoblasts – cell-based, Clone20 osteoblasts, firefly luciferase, cherry-picked, dose response (AID 624132); type: functional;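 also: firefly luciferase luminescence from reporter carrying the Shn3 3'UTR in osteoblasts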
[12] = loss of viability in HepG2 cells – cell-based, CellTiter-Glo, cherry-picked, cytotoxicity control for Shn3 inhibitor project, dose response (AID 624134); type: functional
[13] = non-specific 3'UTR reporter inhibition in Clone20-Shn3RL – cell-based, Renilla luciferase, cherry-picked, counter-screen for Shn3 inhibitor project, dose response (AID 624133); type: functional
Fatty acid synthase [14] = biological target: T4, Fatty acid synthase (Homo sapiens, UniProt P49327); assay: inhibition of human FAS-TE enzyme activity – biochemical, endpoint fluorescence intensity, uHTS hits, dose response (AID 624327); type: functional;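 also: fluorescence from hydrolysis of an O-methyl fluorescein acyl ester substrate by the enzyme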
T4 sequence (P49327 whole entry): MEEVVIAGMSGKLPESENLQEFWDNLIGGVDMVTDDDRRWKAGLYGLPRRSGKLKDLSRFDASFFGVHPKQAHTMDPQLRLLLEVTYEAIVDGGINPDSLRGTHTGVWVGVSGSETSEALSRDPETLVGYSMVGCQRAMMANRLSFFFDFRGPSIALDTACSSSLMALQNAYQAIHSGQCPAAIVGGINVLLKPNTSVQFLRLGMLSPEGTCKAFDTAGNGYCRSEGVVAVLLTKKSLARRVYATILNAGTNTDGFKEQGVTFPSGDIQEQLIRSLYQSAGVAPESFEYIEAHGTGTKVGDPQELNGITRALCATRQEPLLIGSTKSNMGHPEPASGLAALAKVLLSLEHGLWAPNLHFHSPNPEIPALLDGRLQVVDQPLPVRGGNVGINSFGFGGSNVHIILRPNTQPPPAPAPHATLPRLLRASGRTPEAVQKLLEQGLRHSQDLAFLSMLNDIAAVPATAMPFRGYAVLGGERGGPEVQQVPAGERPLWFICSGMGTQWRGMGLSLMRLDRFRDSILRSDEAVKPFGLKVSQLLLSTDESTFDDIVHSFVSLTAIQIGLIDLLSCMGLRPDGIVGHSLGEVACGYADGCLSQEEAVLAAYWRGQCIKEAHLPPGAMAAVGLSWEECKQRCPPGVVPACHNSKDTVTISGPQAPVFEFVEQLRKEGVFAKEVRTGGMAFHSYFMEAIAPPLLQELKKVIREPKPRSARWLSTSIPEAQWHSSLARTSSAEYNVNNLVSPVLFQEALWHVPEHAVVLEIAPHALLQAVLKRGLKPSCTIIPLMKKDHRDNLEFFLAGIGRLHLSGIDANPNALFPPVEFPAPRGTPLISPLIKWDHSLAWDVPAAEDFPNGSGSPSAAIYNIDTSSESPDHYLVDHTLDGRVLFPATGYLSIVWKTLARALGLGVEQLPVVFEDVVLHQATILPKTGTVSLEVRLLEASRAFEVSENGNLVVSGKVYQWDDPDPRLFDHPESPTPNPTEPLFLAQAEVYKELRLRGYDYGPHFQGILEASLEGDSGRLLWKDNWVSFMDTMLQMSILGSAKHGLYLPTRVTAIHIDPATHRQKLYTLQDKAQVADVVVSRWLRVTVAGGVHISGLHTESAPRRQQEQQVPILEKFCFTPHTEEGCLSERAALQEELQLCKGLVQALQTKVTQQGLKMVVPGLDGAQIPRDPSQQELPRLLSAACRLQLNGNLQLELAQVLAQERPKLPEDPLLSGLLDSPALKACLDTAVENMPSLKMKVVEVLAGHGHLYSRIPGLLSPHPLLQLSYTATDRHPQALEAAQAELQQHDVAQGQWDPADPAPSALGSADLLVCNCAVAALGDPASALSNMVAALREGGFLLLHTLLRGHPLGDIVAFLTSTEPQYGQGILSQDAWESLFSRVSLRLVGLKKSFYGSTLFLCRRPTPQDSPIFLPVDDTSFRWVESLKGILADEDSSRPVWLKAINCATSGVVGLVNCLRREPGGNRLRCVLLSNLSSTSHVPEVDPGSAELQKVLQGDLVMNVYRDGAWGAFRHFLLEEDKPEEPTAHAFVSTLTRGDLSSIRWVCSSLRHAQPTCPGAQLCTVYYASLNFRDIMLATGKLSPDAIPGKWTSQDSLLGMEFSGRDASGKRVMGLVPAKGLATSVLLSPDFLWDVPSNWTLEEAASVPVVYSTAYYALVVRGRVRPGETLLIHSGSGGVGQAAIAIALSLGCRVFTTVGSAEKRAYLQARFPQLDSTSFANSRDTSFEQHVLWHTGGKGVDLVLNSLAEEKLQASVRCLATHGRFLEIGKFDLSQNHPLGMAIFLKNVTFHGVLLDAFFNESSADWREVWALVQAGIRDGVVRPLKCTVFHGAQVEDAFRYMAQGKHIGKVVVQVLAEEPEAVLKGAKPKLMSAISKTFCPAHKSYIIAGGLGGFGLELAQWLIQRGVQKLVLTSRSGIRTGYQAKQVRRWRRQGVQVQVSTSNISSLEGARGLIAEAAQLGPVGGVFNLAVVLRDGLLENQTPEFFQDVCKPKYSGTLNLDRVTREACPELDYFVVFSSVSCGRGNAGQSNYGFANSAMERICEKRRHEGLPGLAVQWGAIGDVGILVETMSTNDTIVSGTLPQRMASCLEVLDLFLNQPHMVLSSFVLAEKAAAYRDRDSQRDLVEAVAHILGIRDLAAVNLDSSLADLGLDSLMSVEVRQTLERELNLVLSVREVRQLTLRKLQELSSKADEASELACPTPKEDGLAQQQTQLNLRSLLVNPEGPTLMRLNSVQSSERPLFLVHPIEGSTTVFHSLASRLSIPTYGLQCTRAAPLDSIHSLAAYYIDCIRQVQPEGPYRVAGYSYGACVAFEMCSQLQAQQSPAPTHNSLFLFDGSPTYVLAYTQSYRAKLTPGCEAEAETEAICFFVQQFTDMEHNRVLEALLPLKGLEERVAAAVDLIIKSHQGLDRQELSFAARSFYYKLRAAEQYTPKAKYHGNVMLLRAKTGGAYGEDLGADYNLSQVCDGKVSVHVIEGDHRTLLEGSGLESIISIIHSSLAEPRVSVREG

Fatty acid synthase [15] = biological target: T4, Fatty acid synthase; assay: inhibition of human FAS-TE enzyme activity – biochemical, kinetic fluorescence intensity, dose response (AID 624326); type: functional;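 also: rate of fluorescence rise from hydrolysis of a fluorogenic O-methyl fluorescein ester substrate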
[16] = viability of uninfected HEp-2 cells – cell-based, HTS, cytotoxicity control for RSV inhibitor project, dose response (AID 2410); type: functional; conditions: human respiratory syncytial virus
Cytochrome P450 2C9 = Cytochrome P450 2C9 (Homo sapiens, UniProt P11712)
Sequence of Cytochrome P450 2C9 (P11712 whole entry): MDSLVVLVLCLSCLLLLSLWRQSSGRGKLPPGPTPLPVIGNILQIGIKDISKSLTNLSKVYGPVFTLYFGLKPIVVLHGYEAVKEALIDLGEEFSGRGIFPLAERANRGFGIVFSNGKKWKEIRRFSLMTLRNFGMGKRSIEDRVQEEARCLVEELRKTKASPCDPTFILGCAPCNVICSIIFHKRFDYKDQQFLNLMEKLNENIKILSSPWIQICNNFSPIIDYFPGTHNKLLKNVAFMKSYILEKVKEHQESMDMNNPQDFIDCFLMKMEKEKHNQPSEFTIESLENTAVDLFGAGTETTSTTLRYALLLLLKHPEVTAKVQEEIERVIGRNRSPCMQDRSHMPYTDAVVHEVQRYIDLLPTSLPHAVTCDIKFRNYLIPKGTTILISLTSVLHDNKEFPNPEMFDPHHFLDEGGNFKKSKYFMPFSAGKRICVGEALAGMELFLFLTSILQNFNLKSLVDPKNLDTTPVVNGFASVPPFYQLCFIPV

Sequence of SUMO-activating enzyme (Q9UBE0 whole entry): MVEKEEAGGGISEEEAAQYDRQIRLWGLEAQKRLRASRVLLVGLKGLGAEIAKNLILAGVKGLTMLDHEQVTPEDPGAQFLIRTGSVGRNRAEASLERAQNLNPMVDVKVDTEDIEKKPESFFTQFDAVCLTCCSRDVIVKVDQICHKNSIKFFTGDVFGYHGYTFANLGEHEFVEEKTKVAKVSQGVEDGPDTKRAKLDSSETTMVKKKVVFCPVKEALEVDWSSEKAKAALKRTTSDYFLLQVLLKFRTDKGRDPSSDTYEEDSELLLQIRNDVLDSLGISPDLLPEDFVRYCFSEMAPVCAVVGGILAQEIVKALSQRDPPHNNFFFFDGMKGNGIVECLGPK
Sequence of SUMO-activating enzyme (Q9UBT2 whole entry): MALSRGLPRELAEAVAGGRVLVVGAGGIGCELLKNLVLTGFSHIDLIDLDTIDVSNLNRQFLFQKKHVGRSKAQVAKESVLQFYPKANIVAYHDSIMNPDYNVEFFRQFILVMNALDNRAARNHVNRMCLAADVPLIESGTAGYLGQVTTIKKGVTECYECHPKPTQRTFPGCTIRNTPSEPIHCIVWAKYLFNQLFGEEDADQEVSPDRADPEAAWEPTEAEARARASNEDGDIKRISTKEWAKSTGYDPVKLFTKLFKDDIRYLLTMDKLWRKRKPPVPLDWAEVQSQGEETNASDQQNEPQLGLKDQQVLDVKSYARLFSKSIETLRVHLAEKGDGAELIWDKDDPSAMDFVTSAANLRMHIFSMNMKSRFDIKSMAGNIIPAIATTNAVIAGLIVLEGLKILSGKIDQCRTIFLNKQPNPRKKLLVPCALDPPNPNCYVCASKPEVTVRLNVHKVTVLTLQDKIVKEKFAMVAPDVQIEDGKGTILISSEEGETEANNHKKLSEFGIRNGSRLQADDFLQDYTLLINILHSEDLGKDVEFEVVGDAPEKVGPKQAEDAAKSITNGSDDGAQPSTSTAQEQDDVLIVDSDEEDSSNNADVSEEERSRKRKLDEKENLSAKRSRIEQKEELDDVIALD

## Cc1ccc2c(SCC(=O)NCc3ccco3)nc(-c3ccc(F)cc3)nc2c1
SUMO-activating enzyme
  IC50: 50.1 µM (active)

## CC(C(=O)NCc1ccccn1)N1C(=O)c2ccccc2C1=O (stereo not drawn)
Prothrombin
  IC50: > 50 µM (not active)

## O=C(COC(=O)CCc1ccccc1)Nc1ncc(Cl)cc1Cl
Prothrombin
  IC50: 8.03 µM (active)

## Cc1sc(NC(=O)C2CCCCC2C(=O)O)c(C(N)=O)c1-c1ccccc1 (stereo not drawn)
Leucine aminopeptidase
  IC50: 11 µM (active)

## O=C(NC1CCCCCC1)c1ccc[nH]c1=S
[1]
  IC50: 21.9 µM (active)

## CCOC(=O)c1cnn(-c2ncnc3sc4c(c23)CCC4)c1N
[2]
  EC50: 13.8 µM (active)
[3]
  EC50: 29.1 µM (active)
H4
  EC50: 11.9 µM (active)
Prothrombin
  IC50: > 50 µM (not active)

## CN(C)CCNc1ncnc2oc(-c3ccccc3)c(-c3ccccc3)c12
[4]
  AC50: > 20 µM (inactive)

## COc1ccccc1NC(=O)c1sc2nc(-c3ccco3)ccc2c1N
SUMO-activating enzyme
  IC50: 45.2 µM (active)

## COc1ccnc(CSC(=N)Nc2ccc(F)cc2)c1
[5]
  IC50: > 47.1 µM (inactive)
[6]
  EC50: 32 µM (active)

## CCOC(=O)c1c(N)sc(C(=O)N2CCCCC2)c1C
[5]
  IC50: > 47.1 µM (inactive)
[6]
  EC50: > 53 µM (inactive)

## Cc1ccc(/C=C2\SC(=S)N(CCCC(=O)NC3CCCC3)C2=O)cc1
[7]
  IC50: > 80 µM (inactive)

## C=CCNC(=O)C(C#N)c1nc2ccccc2nc1N1CCN(Cc2ccccc2)CC1 (stereo not drawn)
Prothrombin
  IC50: > 50 µM (inconclusive)

## CC(C)(C)c1ccc(C(=O)Nc2nnc(SCC(=O)NCC3CCCO3)s2)cc1 (stereo not drawn)
HEK293
  AC50: 2.11 µM (active)

## CCCc1cc(=O)c2c(O)ccc(OC)c2o1
HEK293
  AC50: > 350 µM (inactive)

## COc1ccc(CNc2nc(-c3cccnc3)nn2C(=O)CC(C)C)cc1
Prothrombin
  IC50: 0.336 µM (active)

## CC/C(NCCCN(CC)CC)=C1/C(=O)NC(=O)N(C2CCCCC2)C1=O
[8]
  EC50: 0.171 µM (active)
[9]
  EC50: > 60 µM (not active)
[4]
  AC50: > 20 µM (inactive)

## Cc1c(CC(=O)NCCCC(=O)O)c(=O)oc2cc3c(cc12)CCC(C)(C)O3
[7]
  IC50: > 80 µM (inactive)

## Cc1c(O)ccc(-c2[nH]ncc2-c2nc3ccccc3s2)c1O
Leucine aminopeptidase
  IC50: 6.97 µM (active)

## C=CCSc1nnc(NC(=O)c2ccc(Cl)nc2)s1
[10]
  IC50: > 80 µM (inactive)

## Cn1c(=O)n(C)c2cc(NS(=O)(=O)c3ccccc3)ccc21
[7]
  IC50: > 80 µM (inactive)

## Cc1cc(S(=O)(=O)c2ccc(Cl)cc2)nc(S(=O)(=O)c2ccc(Cl)cc2)c1C#N
HEK293
  AC50: 9.23 µM (active)
[11]
  AC50: 2.83 µM (active)
[12]
  AC50: 25.9 µM (active)
[13]
  AC50: 21.2 µM (active)
Fatty acid synthase [14]
  IC50: 7.57 µM (active)
Fatty acid synthase [15]
  IC50: 10.4 µM (active)

## CCn1c2ccccc2c2cc(/C=N/n3cnnc3S)ccc21
[16]
  CC50: 25.1 µM (active)
[10]
  IC50: > 80 µM (inactive)
HEK293
  AC50: 10.7 µM (active)
Cytochrome P450 2C9
  AC50: 31.6 µM (inconclusive)

## O=C(O)c1cccc(NC(=S)N/N=C/c2c[nH]c3ccccc23)c1
Leucine aminopeptidase
  IC50: 17.6 µM (active)
